Test results: PubChem BioAssay (NCI)
Where “and” joins values, the source holds several entries; their conditions need not be identical. Equal values may be shown once.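 Dose response: 5 concentrations. Exposure: 48 h. Format: 96-well plates. Endpoint: linear interpolation; highest concentration if not reached. GI50 marks 50% less growth. TGI denotes the concentration required for complete inhibition of growth.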

Assays:
Assay in all cases: growth of human tumour cells (NCI), 48 h
786-0 renal = system: 786-0 renal
BT-549 breast = system: BT-549 breast
HOP-92 NSCLC = system: HOP-92 NSCLC
HS 578T breast = system: HS 578T breast
SK-MEL-28 melanoma = system: SK-MEL-28 melanoma
SK-MEL-5 melanoma = system: SK-MEL-5 melanoma
SNB-75 CNS = system: SNB-75 CNS
SR leukemia = system: SR leukemia
SW-620 colon = system: SW-620 colon
UACC-257 melanoma = system: UACC-257 melanoma

SMILES | TGI (786-0 renal) | TGI (BT-549 breast) | TGI (HOP-92 NSCLC) | TGI (HS 578T breast) | TGI (SK-MEL-28 melanoma) | TGI (SK-MEL-5 melanoma) [µM] | TGI (SNB-75 CNS) | TGI (SR leukemia) [µM] | TGI (SW-620 colon) [µM] | TGI (UACC-257 melanoma) | GI50 (786-0 renal) | GI50 (BT-549 breast) | GI50 (HOP-92 NSCLC) | GI50 (HS 578T breast) | GI50 (SK-MEL-28 melanoma) | GI50 (SK-MEL-5 melanoma) | GI50 (SNB-75 CNS) | GI50 (SR leukemia) | GI50 (SW-620 colon) | GI50 (UACC-257 melanoma)
O=C1C(Br)=CC2(C=C1Br)CCNc1c(O)c3c4c(c12)=NCCC=4C=N3 | 0.272 µM | 0.507 µM | 0.185 µM | 3.87 µM | 0.416 µM | 0.266 | 2.16 µM | 0.117 | 0.105 | 0.25 µM | – | – | – | – | – | – | – | – | – | –
COc1cc(NC(C)CCCN2C(=O)c3ccccc3C2=O)c2ncccc2c1OC (centres undefined) | > 100 µM | 83.7 µM | > 100 µM | 97.3 µM | > 100 µM | 30.1 | > 100 µM | > 100 | > 100 | > 100 µM | 54.1 µM | 23.4 µM | 18.2 µM | 24.5 µM | 37.8 µM | 16.5 µM | 54.4 µM | 23.7 µM | 35.3 µM | 40.6 µM
Cc1cn2c(/C=C3/C(=O)Nc4ccc(Cl)cc43)c(C)nc2s1 | 31.1 µM | 97.1 µM | 70.1 µM | 0.852 µM | > 54.7 µM | 14.4 | 29.8 µM | > 100 | > 67.7 | > 100 µM | < 0.0403 µM | 5.94 µM | 16 µM | 0.222 µM | 17 µM | 0.125 µM | 16.3 µM | – | 0.22 µM | 12.9 µM
Fc1ccc(-c2c(-c3ccncc3)[nH]c3nccnc23)cc1 | > 25 µM | > 25 µM | > 25 µM | > 25 µM | > 25 µM | > 25 | > 25 µM | > 25 | > 25 | > 25 µM | 11.3 µM | > 15.2 µM | > 25 µM | 8.03 µM | 16.2 µM | 11 µM | 2.66 µM | 8.79 µM | 13.6 µM | > 20 µM
CS(=O)(=O)N1CCc2c(-c3cnc(N)nc3)nc(N3CCOCC3)nc21 | > 8.81 µM and 16.5 µM | 6.08 µM and 6.39 µM | 0.641 µM and 1.35 µM | 3.3 µM and 1.86 µM | 8.18 µM and 13.1 µM | > 30.7 | 1.3 µM and 0.929 µM | > 100 | > 100 | 6.85 µM and 3.8 µM | 0.696 µM and 0.562 µM | 0.51 µM and 0.479 µM | 0.102 µM and 0.112 µM | 0.324 µM and 0.222 µM | 0.646 µM and 0.695 µM | 1.78 µM and 1.36 µM | 0.146 µM and 0.135 µM | 2.08 µM and 1.96 µM | 1.54 µM and 1.29 µM | 0.809 µM and 0.446 µM
Nc1ccc(C(=O)Nc2ccccc2N)cc1 | > 100 µM | > 100 µM | > 100 µM | > 100 µM | > 100 µM | 43.4 | > 93.1 µM | > 100 | > 100 | > 72.5 µM | – | – | – | – | – | – | – | – | – | –
COc1ccc(-c2nc3sccn3c2-c2ccnc(NCCCNS(=O)(=O)c3ccc(F)cc3)n2)cc1 | > 100 µM | 8.27 µM | > 100 µM | 9.03 µM | 6.86 µM | 2.28 | 6.04 µM | > 100 | 44.4 | > 100 µM | 5.13 µM | 2.19 µM | 1.75 µM | 3.22 µM | 2.29 µM | 1.06 µM | 2.25 µM | 3.17 µM | 3.87 µM | 2.85 µM
O=C(/C=C/c1ccccc1)OCC1=C[C@@H](O)[C@@H]2C=CO[C@@H](OC3OC(CO)C(O)C(O)C3O)[C@H]12 (some centres undefined) | > 100 µM | > 100 µM | > 100 µM | > 100 µM | > 100 µM | > 100 | > 100 µM | > 100 | > 100 | > 100 µM | – | – | – | – | – | – | – | – | – | –
COc1cc(-c2nn(-c3cccc(NC(=O)CCN4CCN(C)CC4)c3)cc2-c2ccncc2)ccc1Cl | 3.43 µM | 20.4 µM | 6.42 µM | 6.39 µM | 2.99 µM | 1.86 | 2.92 µM | 2.64 | 1.86 | 3.07 µM | 1.54 µM | 7.26 µM | 0.675 µM | 1.41 µM | 1.48 µM | 0.529 µM | 0.591 µM | 0.471 µM | 0.443 µM | 1.44 µM
CC(C)[C@H](C(=O)O[C@@H]1/C=C/C(=O)O[C@@H](C)CCC/C=C/[C@@H]2C[C@H](O)C[C@H]21)N(C)C | 21.1 µM | 35.6 µM | 96.4 µM | 45.9 µM | 28 µM | 3.44 | > 43.2 µM | 33.8 | 21.8 | 71.1 µM | 6.15 µM | 7.13 µM | 36.4 µM | 2.2 µM | 5.01 µM | 1.75 µM | 5.8 µM | 14.9 µM | 6.35 µM | 15.2 µM
Cc1c(O)c(Br)c(C)c(O)c1Br (tested in a mixture with another compound) | 3.2 µM | 9.7 µM | 3.03 µM | 19.9 µM | 3.56 µM | 11.4 | 29.3 µM | 3.28 | 6.83 | 3.02 µM | – | – | – | – | – | – | – | – | – | –
